Assay results: patent US12403130B2, “Pharmaceutical combinations for treating cancer” (Purdue Pharmaceutical Products L.P., priority 2014, dated 2025)
Read-outs that look alike come from different tables or passages of the source.

Columns and labels:
[1] = test system: U251MG glioblastoma cell line; assay: IC50 against glioblastoma cell line U251MG; type: cell-based
[2] = test system: U87G glioblastoma cell line; assay: IC50 against glioblastoma cell line U87G; type: cell-based
[3] = test system: Vk12653 transplant model of relapsed/refractory multiple myeloma; assay: Vk12653 transplant model of relapsed/refractory multiple myeloma; type: in vivo; conditions: very aggressive, multi-drug resistant model
[4] = test system: U251MG mouse xenograft model; assay: U251MG subcutaneously inoculated xenograft, time to progression; type: in vivo
Experimental: (§1) Subcutaneously Inoculated Xenografts
(§2) • Vehicle (control) • Radiotherapy (2Gy/5 consecutive days) • Temozolamide (16 mg/Kg for 5 consecutive days, po) • Temozolamide+radiotherapy • EDO-S101 (60 mg/Kg at day 1, 8 and 15 every 28 days, iv) • EDO-S101+radiotherapy

Vk*MYC multiple myeloma = assay: Vk*MYC mouse model of multiple myeloma; type: in vivo; conditions: mice receiving only two doses, one week apart
Source text: A genetic rearrangement of the MYC locus, resulting in dysregulated expression of MYC, is the most common mutation in human multiple myeloma. The genetically engineered Vk*MYC mouse model is based on dysregulation of MYC, and has been extensively validated as a clinically and biologically faithful model of untreated multiple myeloma. Nine drugs or classes of drugs (DNA alkylators, glucocorticoids, proteasome inhibitors, IMiDs, nab-paclitaxel, histone deacetylase inhibitors, TACI-Ig, perifosine and SNS-032, a CDK2, 7, 9 inhibitor) have been previously reported with more than a 20% partial response rate in Vk*MYC MM. Among those, the first five also have greater than 20% PR in patients with multiple myeloma for a positive predictive value of 56%.

[5] = test system: multiple myeloma cell lines; conditions: WO-A-2010/085377; in vitro; cited from earlier work
[6] = test system: U87MG mouse xenograft model; assay: U87MG subcutaneously inoculated xenograft, time to progression; type: in vivo
Experimental: as §1, §2

[7] = test system: T98G glioblastoma cell line; assay: IC50 against glioblastoma cell line T98G; type: cell-based
[8] = test system: T98G, U251MG and U87MG glioblastoma cell lines; assay: Radiotherapy and EDO-S101 against glioblastoma cell lines in vitro, surviving fraction; type: cell-based; conditions: radiotherapy in combination with EDO-S101 (5 μM or 10 μM) compared to radiotherapy alone
Experimental: FIG. 15 is a plot of % surviving fraction of in vitro T98G, U251MG and U87MG glioblastoma cell lines against dose of radiotherapy (Gy) in combination with two different concentrations of the compound of formula I (EDO-S101) against a control with radiotherapy alone.

[9] = combination with radiotherapy (2Gy/5 consecutive days), temozolamide 16 mg/Kg 5 consecutive days po, EDO-S101 60 mg/Kg day 1, 8, 15 iv
[10] = drug alone, EDO-S101 60 mg/Kg at day 1, 8 and 15 every 28 days, iv
[11] = unit not given for temozolamide

SMILES | IC50 ([1]; Homo sapiens, U-251) | IC50 [2] | single agent activity [3] | time to progression of the tumours [4, 9] | time to progression of the tumours [4, 10] | duration of response (Vk*MYC multiple myeloma) | rate of response (Vk*MYC multiple myeloma) | activity relative to the activity shown by bendamustin [5] | time to progression of the tumours [6, 9] | time to progression of the tumours [6, 10] | IC50 ([7]; Homo sapiens) | % survival rate for the glioblastoma cells (FIG. 15) [8] | IC50 [1] | IC50 [7] | IC50 [1, 11] | IC50 [2, 11] | time to progression of the tumours ([4]; mouse, in vivo) | time to progression of the tumours ([6]; mouse, in vivo) | IC50 [7, 11]
Cn1c(CCCCCCC(=O)NO)nc2cc(N(CCCl)CCCl)ccc21 [EDO-S101] | 6.6 µM | 1.36 µM | single agent activity | over 50 days | over 50 days | more than three months | high rate of response | 35-100 × | over 50 days | 40 days | 7.7 µM | considerably reduced |  |  |  |  |  |  | 
Cn1c(CCCC(=O)O)nc2cc(N(CCCl)CCCl)ccc21 [bendamustin] |  | 50 µM |  |  |  |  |  |  |  |  |  |  | 30 µM | 52 µM |  |  |  |  | 
Cn1nnc2c(C(N)=O)ncn2c1=O [temozolamide] |  |  |  |  |  |  |  |  |  |  |  |  |  |  | 20 µM | 20 µM | 42 days | 35 days | > 100 µM
